Experiment [1] has as its target T1, angiotensin receptors in human synovium (Homo sapiens, UniProt P30556).
T1 construct: Human knee synovium was collected at surgery from patients with osteoarthritis or rheumatoid arthritis; from tissue; host or cells: human knee synovium cryostat sections (osteoarthritis, rheumatoid arthritis, chondromalacia patellae)
T1 sequence (P30556 1-359): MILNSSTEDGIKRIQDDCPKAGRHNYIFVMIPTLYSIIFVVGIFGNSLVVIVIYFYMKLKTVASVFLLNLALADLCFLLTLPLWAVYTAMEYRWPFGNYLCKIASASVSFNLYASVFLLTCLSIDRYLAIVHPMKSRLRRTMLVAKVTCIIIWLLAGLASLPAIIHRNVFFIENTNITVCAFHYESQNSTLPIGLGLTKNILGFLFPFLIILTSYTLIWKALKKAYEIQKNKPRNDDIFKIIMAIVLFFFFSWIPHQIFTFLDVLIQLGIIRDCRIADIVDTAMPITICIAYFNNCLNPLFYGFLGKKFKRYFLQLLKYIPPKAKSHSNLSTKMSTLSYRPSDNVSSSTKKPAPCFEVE
Description: Inhibition of [125I](Sar1, Ile8)AII binding to human synovium, quantitative receptor autoradiography. The following applies: for Binding of [125I](Sar1, Ile8) angiotensin II in the presence of DTT: osteoarthritis; for nHill values / pKi: osteoarthritic synovium; for pKi: 0.25 nM [125I](Sar1, Ile8)AII; for Binding of [125I](Sar1, Ile8) angiotensin II in the presence of antagonist: 10 μM antagonist. The arrangement: Binding of [125I](Sar1, Ile8) angiotensin II in the presence of antagonist: unit not given here. As to the method: Human knee synovium was collected at surgery from patients with osteoarthritis or rheumatoid arthritis undergoing total knee replacement and patients with chondromalacia patellae undergoing carbon fibre resurfacing of articular cartilage. Tissue samples were immediately embedded in Tissue-Tek (Miles Inc., Elkhart, Ind., USA) and frozen to cork mounts in melting isopentane without prior fixation. Specimens were stored at -40° C. until use. […] thick sections were cut in a cryostat and thaw mounted onto Vectabond™ (Vector Laboratories, Peterborough, U.K.) treated slides, air dried and used immediately, or stored at -20° C. with silica gel for up to 5 days until use.
[…] Excess buffer was removed and sections were incubated for 90 minutes with ligand in buffer B (buffer A plus 1% bovine serum albumin). […] Except where stated, incubations were performed at 22° C.
Films were developed in Kodak D9 for 3 minutes at 15° C. […] Synovial structures were identified, where necessary, by comparison of films with tissue sections counterstained with haematoxylin and eosin. Tissue structures (blood vessels, lining cells and regions of subintimal stroma displaying specific binding) were each delineated interactively. Binding was quantified on the 20 blood vessels in each section with the most dense specific binding.
Specific binding was defined as total minus non-specific binding. Characterisation of specific binding was performed on samples of synovium from patients with osteoarthritis.
Kinetic and equilibrium constants were derived from specific binding values by iterative non-linear regression assuming single site models using GraphPAD Inplot4 (San Diego). […] Values for binding inhibition constants (Ki) and HIll coefficients (nHill) were derived by fitting to sigmoid curves.

Experiment [2] concerns the target T2, contractile response to angiotensin II in the isolated rabbit aorta (Oryctolagus cuniculus, UniProt P34976).
T2 construct: Ring segments are cut from the rabbit thoracic aorta; from tissue; host or cells: rabbit thoracic aorta ring segments
T2 sequence (P34976 1-359): T1 sequence (P30556 1-359) with I2M, V49A, I254V, I270V, R272H, R311K, T349S, A353V
Description: Antagonism of angiotensin II induced vasoconstriction in isolated rabbit aorta. The following applies: rabbit thoracic aorta rings, 30-minute incubation, dose ratio method; read-out: Antagonist dissociation constant (KB). As to the method:
Angiotensin II antagonist activity is assessed by in vitro methods In vitro antagonist activity is determined by the ability of the compounds to compete with ^125 I-angiotensin II for binding to vascular angiotensin II receptors and by their ability to antagonize the contractile response to angiotensin II in the isolated rabbit aorta.
The ability of the compounds to antagonize angiotensin II induced vasoconstriction is examined in the rabbit aorta. Ring segments are cut from the rabbit thoracic aorta and suspended in organ baths containing physiological salt solution. The ring segments are mounted over metal supports and attached to force displacement transducers which are connected to a recorder. Cumulative concentration response curves to angiotensin II are performed in the absence of antagonist or following a 30-minute incubation with antagonist. Antagonist dissociation constants (KB) are calculated by the dose ratio method using the mean effective concentrations. The KB for (E)-3-[2-n-butyl-1-{4-carboxynaphth-1-yl)methyl}-1H-imidazol-5-yl]-2-(2-thienyl)methyl-2-propenoic acid is about 0.15 nM.

Experiment [3] relates to angiotensin receptors in human synovium. Nature of the experiment: Guanine nucleotide sensitivity of [125I]AII binding to human synovium. The following applies: 1 μM GTPγS.

Positions count from the first letter of the chain named. pKi: −log10 of the molar value. Like-named read-outs stand apart in the source and are kept apart here. A value given as a limit tells only on which side of the number the result lay.

For `O[C@H](CS)[C@H](O)CS` (racemic) [DTT, dithiothreitol], the “Inhibition of specific [125I](Sar1, Ile8)AII binding to each structure” value in experiment [1] (10 mM DTT) is reported as “completely inhibited”. The “Binding of [125I](Sar1, Ile8) angiotensin II in the presence of DTT” value in experiment [1] (blood vessels, 10 mM DTT, total 10.2, nonspecific 3.2) is given as 3.2 (2.9 to 3.5) amol mm^-2; in experiment [1] (lining cells, 10 mM DTT, total 5.1, nonspecific 2.1), 2.0 (1.8 to 2.3) amol mm^-2; in experiment [1] (stroma, 10 mM DTT, total 2.6, nonspecific 1.7), 1.6 (1.5 to 1.7) amol mm^-2.
Consider `CCCCc1ncc(/C=C(\Cc2cccs2)C(=O)O)n1Cc1ccc(C(=O)O)c2ccccc12` [(E)-3-[2-n-butyl-1-{4-carboxynaphth-1-yl)methyl}-1H-imidazol-5-yl]-2-(2-thienyl)methyl-2-propenoic acid], for which, in experiment [2], the Kb (in general, the equilibrium dissociation constant of an antagonist, usually derived from a functional assay) was ~0.00015 µM.
On to `CCCCc1ncc(/C=C(\Cc2cccs2)C(=O)O)n1Cc1ccc(C(=O)O)cc1` [(E)-3-[2-n-butyl-1-{4-carboxyphenyl)methyl}-1H-imidazol-5-yl]-2-(2-thienyl)methyl-2-propenoic acid], for which the nHill values worked out at 1.2 in experiment [1] (blood vessels), 0.8 in experiment [1] (lining cells) and 0.8 in experiment [1] (stroma). Moreover, the pKi (commonly −log10 of the Ki, conventionally taken in molar units) in experiment [1] (blood vessels, read-out: Ki values) was 7.31; in experiment [1] (lining cells, read-out: Ki values) it was 7.22; in experiment [1] (stroma, read-out: Ki values), 7.09. For the same molecule, in experiment [1] (inflamed human synovium), the “Inhibition of binding of [125I](Sar1, Ile8)AII to microvessels, lining cells and stroma” value is “potently and completely inhibited”.
`Nc1nc2c(ncn2[C@@H]2O[C@H](COP(=O)(O)OP(=O)(O)OP(O)(O)=S)[C@@H](O)[C@H]2O)c(=O)[nH]1` [GTPγS, guanosine 5'-O-(3-thiotriphosphate)]: the “Inhibition of binding of agonist [125I]AII to each structure” value in experiment [3] was “levels not significantly different from nonspecific binding”. Besides, the “Inhibition of [125I](Sar1, Ile8)AII binding” value in experiment [1] (1 μM GTPγS) was “did not inhibit”.
Regarding `Cc1cc(Cn2cnc3c2C[C@@H](C(=O)O)N(C(=O)C(c2ccccc2)c2ccccc2)C3)ccc1N(C)C` [PD123319], the “Inhibition of specific [125I](Sar1, Ile8)AII binding to each structure” value in experiment [1] (10 μM, synovium from patients with osteoarthritis and rheumatoid arthritis) was “not significantly inhibited”. The pKi is < 5.00 in experiment [1] (Ki values, blood vessels); < 5.00 in experiment [1] (Ki values, lining cells); < 5.00 in experiment [1] (Ki values, stroma). Also, the “Binding of [125I](Sar1, Ile8) angiotensin II in the presence of antagonist” value in experiment [1] (blood vessels, OA, total 7.9, nonspecific 2.4) stood at 7.1; in experiment [1] (blood vessels, RA, total 14, nonspecific 2.6), 12; in experiment [1] (lining cells, OA, total 3.6, nonspecific 1.6), 3.8; in experiment [1] (lining cells, RA, total 5.7, nonspecific 1.7), 5.5; in experiment [1] (stroma, OA, total 2.4, nonspecific 1.5), 2.2; in experiment [1] (stroma, RA, total 3.0, nonspecific 1.6), 2.9.

These data come from patent US5824696A, “Medicaments” (SmithKline Beecham Corporation, priority 1993, dated 1998).
